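Dose response: 5 concentrations. Exposure: 48 h. Format: 96-well plates. Endpoint: linear interpolation; highest concentration if not reached. GI50 = concentration required for 50% inhibition of growth. At the TGI there is no net growth.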
Legend:
Test in all cases: DTP human tumour cell line panel, 48 h
MOLT-4 leukemia = test system: MOLT-4 leukemia
NCI-H226 lung = test system: NCI-H226 lung
NCI-H23 lung = test system: NCI-H23 lung
NCI-H460 lung = test system: NCI-H460 lung
NCI-H522 lung = test system: NCI-H522 lung
OVCAR-3 ovarian = test system: OVCAR-3 ovarian
OVCAR-4 ovarian = test system: OVCAR-4 ovarian
OVCAR-5 ovarian = test system: OVCAR-5 ovarian
OVCAR-8 ovarian = test system: OVCAR-8 ovarian
PC-3 prostate = test system: PC-3 prostate
RPMI-8226 leukemia = test system: RPMI-8226 leukemia
RXF 393 renal = test system: RXF 393 renal
SF-295 CNS = test system: SF-295 CNS
SF-539 CNS = test system: SF-539 CNS
SK-MEL-2 melanoma = test system: SK-MEL-2 melanoma
SK-MEL-28 melanoma = test system: SK-MEL-28 melanoma
SK-MEL-5 melanoma = test system: SK-MEL-5 melanoma
SK-OV-3 ovarian = test system: SK-OV-3 ovarian
SN12C renal = test system: SN12C renal
SNB-19 CNS = test system: SNB-19 CNS
SNB-75 CNS = test system: SNB-75 CNS
SR leukemia = test system: SR leukemia
SW-620 colon = test system: SW-620 colon
T-47D breast = test system: T-47D breast
TK-10 renal = test system: TK-10 renal
U251 CNS = test system: U251 CNS
UACC-257 melanoma = test system: UACC-257 melanoma
UACC-62 melanoma = test system: UACC-62 melanoma
UO-31 renal = test system: UO-31 renal

Q: With `O=c1oc2ccc(-c3ccc(F)cc3F)cc2c(=O)n1-c1ccc(F)cc1` as the molecule, how does the TGI (MOLT-4 leukemia) read?
A: The TGI was 8.27 µM.

Q: And the GI50 (NCI-H226 lung)?
A: The GI50 was 1.45 µM.

Q: And the TGI (NCI-H226 lung)?
A: Its TGI is 6.5 µM.

Q: And the GI50 (NCI-H23 lung)?
A: The GI50 was 2.08 µM.

Q: And the TGI (NCI-H23 lung)?
A: Its TGI is 6.78 µM.

Q: And the GI50 (NCI-H460 lung)?
A: Its GI50 is 2.3 µM.

Q: What about the TGI (NCI-H460 lung) of the same molecule?
A: The TGI was 11.9 µM.

Q: And the GI50 (NCI-H522 lung)?
A: The GI50 was 1.23 µM.

Q: What about the TGI (NCI-H522 lung) of the same molecule?
A: Its TGI is 6.15 µM.

Q: What about the GI50 (OVCAR-3 ovarian) of the same molecule?
A: Its GI50 is 2.49 µM.

Q: What about the TGI (OVCAR-3 ovarian) of the same molecule?
A: The TGI was 14 µM.

Q: And the GI50 (OVCAR-4 ovarian)?
A: Its GI50 is 2.08 µM.

Q: What about the TGI (OVCAR-4 ovarian) of the same molecule?
A: The TGI was 54.1 µM.

Q: What about the GI50 (OVCAR-5 ovarian) of the same molecule?
A: Its GI50 is 3.2 µM.

Q: And the TGI (OVCAR-5 ovarian)?
A: The TGI was > 100 µM.

Q: And the GI50 (OVCAR-8 ovarian)?
A: Its GI50 is 3.52 µM.

Q: What about the TGI (OVCAR-8 ovarian) of the same molecule?
A: Its TGI is > 100 µM.

Q: What about the GI50 (PC-3 prostate) of the same molecule?
A: Its GI50 is 2.8 µM.

Q: And the TGI (PC-3 prostate)?
A: Its TGI is 11.7 µM.

Q: What about the GI50 (RPMI-8226 leukemia) of the same molecule?
A: Its GI50 is 1.33 µM.

Q: What about the TGI (RPMI-8226 leukemia) of the same molecule?
A: Its TGI is 7.13 µM.

Q: What about the GI50 (RXF 393 renal) of the same molecule?
A: The GI50 was 1.55 µM.

Q: And the TGI (RXF 393 renal)?
A: Its TGI is 5.63 µM.

Q: And the GI50 (SF-295 CNS)?
A: Its GI50 is 3.46 µM.

Q: And the TGI (SF-295 CNS)?
A: The TGI was 12.8 µM.

Q: And the GI50 (SF-539 CNS)?
A: Its GI50 is 2.88 µM.

Q: What about the TGI (SF-539 CNS) of the same molecule?
A: Its TGI is 12.1 µM.

Q: And the GI50 (SK-MEL-2 melanoma)?
A: Its GI50 is 1.79 µM.

Q: And the TGI (SK-MEL-2 melanoma)?
A: The TGI was 4.6 µM.

Q: What about the GI50 (SK-MEL-28 melanoma) of the same molecule?
A: The GI50 was 3.23 µM.

Q: What about the TGI (SK-MEL-28 melanoma) of the same molecule?
A: Its TGI is > 100 µM.

Q: What about the GI50 (SK-MEL-5 melanoma) of the same molecule?
A: The GI50 was 0.799 µM.

Q: What about the TGI (SK-MEL-5 melanoma) of the same molecule?
A: The TGI was 2.3 µM.

Q: And the GI50 (SK-OV-3 ovarian)?
A: Its GI50 is 2.15 µM.

Q: And the TGI (SK-OV-3 ovarian)?
A: Its TGI is 6.37 µM.

Q: And the GI50 (SN12C renal)?
A: The GI50 was 2.12 µM.

Q: And the TGI (SN12C renal)?
A: Its TGI is 8.04 µM.

Q: And the GI50 (SNB-19 CNS)?
A: The GI50 was 3.58 µM.

Q: What about the TGI (SNB-19 CNS) of the same molecule?
A: The TGI was > 100 µM.

Q: And the GI50 (SNB-75 CNS)?
A: The GI50 was 1.38 µM.

Q: What about the TGI (SNB-75 CNS) of the same molecule?
A: The TGI was 5.53 µM.

Q: What about the GI50 (SR leukemia) of the same molecule?
A: Its GI50 is 2.45 µM.

Q: What about the TGI (SR leukemia) of the same molecule?
A: The TGI was > 100 µM.

Q: And the GI50 (SW-620 colon)?
A: Its GI50 is 3.23 µM.

Q: And the TGI (SW-620 colon)?
A: The TGI was > 100 µM.

Q: What about the GI50 (T-47D breast) of the same molecule?
A: Its GI50 is 0.502 µM.

Q: And the TGI (T-47D breast)?
A: The TGI was 4.32 µM.

Q: And the GI50 (TK-10 renal)?
A: Its GI50 is 2.78 µM.

Q: And the TGI (TK-10 renal)?
A: Its TGI is > 100 µM.

Q: And the GI50 (U251 CNS)?
A: The GI50 was 2.82 µM.

Q: And the TGI (U251 CNS)?
A: The TGI was 17.3 µM.

Q: And the GI50 (UACC-257 melanoma)?
A: The GI50 was 1.64 µM.

Q: And the TGI (UACC-257 melanoma)?
A: Its TGI is 6.78 µM.

Q: And the GI50 (UACC-62 melanoma)?
A: Its GI50 is 1.37 µM.

Q: What about the TGI (UACC-62 melanoma) of the same molecule?
A: Its TGI is 4.65 µM.

Q: What about the GI50 (UO-31 renal) of the same molecule?
A: Its GI50 is 2.3 µM.

Q: And the TGI (UO-31 renal)?
A: The TGI was 9.44 µM.
